# Reference: ChEMBL document CHEMBL5512696, “Discovery of a Novel ASM Direct Inhibitor with a 1,5-Diphenyl-pyrazole Scaffold and Its Antidepressant Mechanism of Action” (J Med Chem, 2024)
# Calls of active or inactive are those of the source. No cut-off for these calls is given here.
# What was measured:
# Mus musculus [1] = assay: Antidepressant activity in ip dosed ICR mouse model of chronic unpredictable mild stress assessed as reduction in sphingosine-1-phosphate level in hippocampus administered once a day for 1 week post 8 week of chronic unpredictable mild stress and measured after 1 week by ELISA; assay type: functional, organism-based; settings: dose 6-12 mg/kg, time 2.0 weeks
# [2] = Ratio of drug concentration in male ICR mouse brain to plasma at 1 mg/kg, iv measured after 30 mins by LC-MS/MS analysis; assay type: ADME, organism-based; settings: read-out: BPR
# Mus musculus [3] = assay: (§1) Antidepressant activity in ip dosed ICR mouse model of chronic unpredictable mild stress assessed as downregulation of neuronal apoptosis by measuring reduction in caspase-3 protein level in hippocampus administered once a day for 1 week post 8 week of chronic unpredictable mild stress and measured after 1 week by Western blot analysis; assay type: functional, organism-based; settings: dose 6-24 mg/kg, time 2.0 weeks
# [4] = Neurotoxicity against human SH-SY5Y cells assessed as reduction in cell viability at 5 to 20 uM by CCK-8 assay; assay type: toxicity, cell-based; settings: dose 5-20 µM
# SH-SY5Y [5] = assay: Neuroprotective activity against corticosterone induced human SH-SY5Y cells assessed as protection against corticosterone induced cell damage measured after 24 hrs by CCK-8 assay; assay type: functional, cell-based; settings: dose 5-20 µM
# [6] = Tmax in male ICR mouse at 1 mg/kg, iv measured upto 480 mins by LC-MS/MS analysis; assay type: ADME, organism-based; settings: in vivo
# Mus musculus [7] = assay: as §1, with “in” for “in ip dosed”, “improvement” for “reduction”, “Bcl-2/Bax ratio” for “caspase-3 protein level”, “hippocampus at 6 to 24 mg/kg, ip” for “hippocampus”; assay type: functional, organism-based; settings: dose 6-24 mg/kg, time 2.0 weeks
# [8] = Observed MRT (0 to infinity) in male ICR mouse at 10 mg/kg, ip measured upto 480 mins by LC-MS/MS analysis; assay type: ADME, organism-based; settings: in vivo
# Mus musculus [9] = assay: Antidepressant activity in ICR mouse model of chronic unpredictable mild stress assessed as reduction in ceramide level in hippocampus at 6 to 12 mg/kg, ip administered once a day for 1 week post 8 week of chronic unpredictable mild stress and measured after 1 week by ELISA; assay type: functional, organism-based; settings: dose 6-12 mg/kg, time 2.0 weeks
# [10] = Metabolic stability in human liver microsomes assessed as half life at 1 uM incubated for 60 mins by LC-MS/MS analysis; assay type: ADME, Microsome
# Mus musculus [11] = assay: Antineuroinflammatory activity in ip dosed ICR mouse model of chronic unpredictable mild stress assessed as reduction in IL-6 level in serum administered once a day for 1 week post 8 week of chronic unpredictable mild stress and measured after 1 week by ELISA; assay type: functional, organism-based; settings: dose 6-12 mg/kg, time 2.0 weeks
# Mus musculus [12] = assay: (§2) Antidepressant activity in ICR mouse model of chronic unpredictable mild stress assessed as reduction in ceramide level in cerebral cortex at 6 to 12 mg/kg, ip administered once a day for 1 week post 8 week of chronic unpredictable mild stress and measured after 1 week by ELISA; assay type: functional, organism-based; settings: dose 6-12 mg/kg, time 2.0 weeks
# Mus musculus [13] = organism: Mus musculus; settings: ICR, dose 6-12 mg/kg, route ip, time 2.0 weeks
# Description: In vivo inhibition of ASM in ICR mouse model of chronic unpredictable mild stress assessed as increase in 5-HT uptake in hippocampus at 6 to 12 mg/kg, ip administered once a day for 1 week post 8 week of chronic unpredictable mild stress and measured after 1 week by ELISA
# [14] = Neurotoxicity against human SH-SY5Y cells assessed as reduction in cell viability at 100 uM by CCK-8 assay; assay type: toxicity, cell-based
# [15] = Observed MRT (0 to infinity) in male ICR mouse at 1 mg/kg, iv measured upto 480 mins by LC-MS/MS analysis; assay type: ADME, organism-based; settings: in vivo
# [16] = Neurotoxicity against human SH-SY5Y cells assessed as cell survival rate at 5 to 20 uM by CCK-8 assay relative to control; assay type: toxicity, cell-based; settings: dose 5-20 µM, read-out: Survival
# [17] = Observed clearance in male ICR mouse at 1 mg/kg, iv measured upto 480 mins by LC-MS/MS analysis; assay type: ADME, organism-based; settings: in vivo, 8 h
# [18] = AUC (0 to infinity) in male ICR mouse at 10 mg/kg, ip measured upto 480 mins by LC-MS/MS analysis; assay type: ADME, organism-based; settings: in vivo
# [19] = Half life in male ICR mouse at 10 mg/kg, ip measured upto 480 mins by LC-MS/MS analysis; assay type: ADME, organism-based; settings: in vivo
# [20] = AUC (0 to t) in male ICR mouse at 1 mg/kg, iv measured upto 480 mins by LC-MS/MS analysis; assay type: ADME, organism-based; settings: in vivo
# [21] = Ratio of drug concentration in male ICR mouse brain to plasma at 1 mg/kg, iv measured after 60 mins by LC-MS/MS analysis; assay type: ADME, organism-based; settings: read-out: BPR
# Mus musculus [22] = assay: Antidepressant activity in ICR mouse model of chronic unpredictable mild stress assessed as reduction in sphingomyelin level in hippocampus at 6 to 12 mg/kg, ip administered once a day for 1 week post 8 week of chronic unpredictable mild stress and measured after 1 week by ELISA; assay type: functional, organism-based; settings: dose 6-12 mg/kg, time 2.0 weeks
# Mus musculus [23] = assay: (§3) Antidepressant activity in ip dosed ICR mouse model of chronic unpredictable mild stress assessed as reduction in sphingosine-1-phosphate level in cerebral cortex administered once a day for 1 week post 8 week of chronic unpredictable mild stress and measured after 1 week by ELISA; assay type: functional, organism-based; settings: dose 6-12 mg/kg, time 2.0 weeks
# [24] = Half life in male ICR mouse at 1 mg/kg, iv measured upto 480 mins by LC-MS/MS analysis; assay type: ADME, organism-based; settings: in vivo, 8 h
# Mus musculus [25] = assay: Improvement in depression-like behavior in ICR mouse model of chronic unpredictable mild stress assessed as reduction in immobility time at 6 to 24 mg/kg, ip administered once a day for 10 days post 8 week of chronic unpredictable mild stress by tail suspension test; assay type: functional, organism-based; settings: dose 6-24 mg/kg, time 10.0 day
# Mus musculus [26] = assay: Improvement in depression-like behavior in ICR mouse model of chronic unpredictable mild stress assessed as reduction in immobility time at 6 to 24 mg/kg, ip administered once a day for 10 days post 8 week of chronic unpredictable mild stress by forced swim test; assay type: functional, organism-based; settings: dose 6-24 mg/kg, time 10.0 day
# Mus musculus [27] = assay: Improvement in depression-like behavior in ip dosed ICR mouse model of chronic unpredictable mild stress assessed as improvement in sugar consumption administered once a day for 10 days post 8 week of chronic unpredictable mild stress by sugar preference test; assay type: functional, organism-based; settings: dose 6-24 mg/kg, time 10.0 day
# Mus musculus [28] = assay: as §3, with “oxidative stress by measuring increase in SOD” for “sphingosine-1-phosphate”; assay type: functional, organism-based; settings: dose 6-12 mg/kg, time 2.0 weeks
# [29] = Drug concentration in male ICR mouse plasma at 1 mg/kg, iv measured after 30 mins by LC-MS/MS analysis; assay type: ADME, organism-based
# [30] = Cmax in male ICR mouse at 1 mg/kg, iv measured upto 480 mins by LC-MS/MS analysis; assay type: ADME, organism-based; settings: in vivo
# Mus musculus [31] = assay: Improvement in depression-like behavior in ICR mouse model of chronic unpredictable mild stress assessed as increase in total distance traveled in center at 6 to 24 mg/kg, ip administered once a day for 10 days post 8 week of chronic unpredictable mild stress by open field test; assay type: functional, organism-based; settings: dose 6-24 mg/kg, time 10.0 day
# Mus musculus [32] = assay: as §3, with “oxidative stress by measuring increase in GSH” for “sphingosine-1-phosphate”; assay type: functional, organism-based; settings: dose 6-12 mg/kg, time 2.0 weeks
# Mus musculus [33] = assay: Antineuroinflammatory activity in ip dosed ICR mouse model of chronic unpredictable mild stress assessed as reduction in IL-1beta level in serum administered once a day for 1 week post 8 week of chronic unpredictable mild stress and measured after 1 week by ELISA; assay type: functional, organism-based; settings: dose 6-12 mg/kg, time 2.0 weeks
# Mus musculus [34] = organism: Mus musculus; settings: ICR, dose 6-24 mg/kg, route ip, time 2.0 weeks
# Description: In vivo inhibition of ASM in ip dosed ICR mouse model of chronic unpredictable mild stress assessed as reduction in ASM activity in hippocampus administered once a day for 1 week post 8 week of chronic unpredictable mild stress and measured after 1 week by fluorescence based analysis
# Mus musculus [35] = assay: Antineuroinflammatory activity in ip dosed ICR mouse model of chronic unpredictable mild stress assessed as reduction in TNFalpha level in serum administered once a day for 1 week post 8 week of chronic unpredictable mild stress and measured after 1 week by ELISA; assay type: functional, organism-based; settings: dose 6-12 mg/kg, time 2.0 weeks
# Mus musculus [36] = assay: as §1, with “caspase-9” for “caspase-3”; assay type: functional, organism-based; settings: dose 6-24 mg/kg, time 2.0 weeks
# [37] = AUC (0 to infinity) in male ICR mouse at 1 mg/kg, iv measured upto 480 mins by LC-MS/MS analysis; assay type: ADME, organism-based; settings: in vivo, 8 h
# [38] = Bioavailability in male ICR mouse at 1 mg/kg, iv measured upto 480 mins by LC-MS/MS analysis; assay type: ADME, organism-based; settings: in vivo
# [39] = Metabolic stability in human liver microsomes assessed as intrinsic clearance at 1 uM incubated for 60 mins by LC-MS/MS analysis; assay type: ADME, Microsome; settings: read-out: CLH
# Mus musculus [40] = assay: as §1, with “in” for “in ip dosed”, “increase” for “reduction”, “BDNF” for “caspase-3”, “hippocampus at 6 to 24 mg/kg, ip” for “hippocampus”; assay type: functional, organism-based; settings: dose 6-24 mg/kg, time 2.0 weeks
# Mus musculus [41] = assay: as §2, with “oxidative stress by measuring reduction in MDA” for “ceramide”; assay type: functional, organism-based; settings: dose 6-12 mg/kg, time 2.0 weeks
# SH-SY5Y [42] = assay: Neuroprotective activity against corticosterone induced human SH-SY5Y cells assessed as protection against corticosterone induced morphological changes measured after 24 hrs; assay type: functional, cell-based; settings: dose 5-20 µM
# Mus musculus [43] = assay: Antidepressant activity in ICR mouse model of chronic unpredictable mild stress assessed as reduction in sphingomyelin level in cerebral cortex at 6 to 12 mg/kg, ip administered once a day for 1 week post 8 week of chronic unpredictable mild stress and measured after 1 week by ELISA; assay type: functional, organism-based; settings: dose 6-12 mg/kg, time 2.0 weeks
# [44] = AUC (0 to t) in male ICR mouse at 10 mg/kg, ip measured upto 480 mins by LC-MS/MS analysis; assay type: ADME, organism-based; settings: in vivo
# [45] = Drug concentration in male ICR mouse plasma at 1 mg/kg, iv measured after 60 mins by LC-MS/MS analysis; assay type: ADME, organism-based
# [46] = Observed apparent volume of distribution in male ICR mouse at 1 mg/kg, iv measured upto 480 mins by LC-MS/MS analysis; assay type: ADME, organism-based; settings: in vivo, 8 h
# [47] = Drug concentration in male ICR mouse brain at 1 mg/kg, iv measured after 60 mins by LC-MS/MS analysis; assay type: ADME, organism-based; settings: read-out: Ct
# Mus musculus [48] = assay: Antidepressant activity in ICR mouse model of chronic unpredictable mild stress assessed as reduction in sphingomyelin level in hippocampus at 12 mg/kg, ip administered once a day for 1 week post 8 week of chronic unpredictable mild stress and measured after 1 week by ELISA; assay type: functional, organism-based; settings: time 2.0 weeks
# [49] = Drug concentration in male ICR mouse brain at 1 mg/kg, iv measured after 30 mins by LC-MS/MS analysis; assay type: ADME, organism-based; settings: read-out: Ct
# [50] = Cmax in male ICR mouse at 10 mg/kg, ip measured upto 480 mins by LC-MS/MS analysis; assay type: ADME, organism-based; settings: in vivo
smiles,measurement,setting,value
O=C(NO)c1cc(-c2ccc(Br)cc2)n(-c2ccc(Cl)cc2)n1,Activity,Mus musculus [1],Dose-Dependent Effect
same,Kp at 0.5 h,[2],0.37
same,Activity,Mus musculus [3],Dose-Dependent Effect
same,Activity,[4],Non-Toxic
same,Activity,SH-SY5Y [5],Dose-Dependent Effect
same,Tmax,[6],15 min
same,Activity,Mus musculus [7],Active
same,MRT inf,[8],52.8 min
same,Activity,Mus musculus [9],Active
same,half-life at 1 µM,[10],111 min
same,Activity,Mus musculus [11],Dose-Dependent Effect
same,Activity,Mus musculus [12],Active
same,inhibition,Mus musculus [13],Active
same,Activity,[14],Toxic
same,MRT inf,[15],15 min
same,viability,[16],> 78%
same,CL,[17],2752.79 mL/kg/h
same,AUC(0-inf),[18],3650 ng·h/mL
same,half-life,[19],50.4 min
same,AUC(0-t) at 8 h,[20],921 ng·h/mL
same,Kp at 1 h,[21],0.57
same,Activity,Mus musculus [22],Active
same,Activity,Mus musculus [23],Dose-Dependent Effect
same,t1/2,[24],18.6 min
same,Activity,Mus musculus [25],Active
same,Activity,Mus musculus [26],Active
same,Activity,Mus musculus [27],Active
same,Activity,Mus musculus [28],Dose-Dependent Effect
same,concentration at 0.5 h,[29],223 ng/mL
same,Cmax,[30],2590 ng/mL
same,Activity,Mus musculus [31],Active
same,Activity,Mus musculus [32],Dose-Dependent Effect
same,Activity,Mus musculus [33],Dose-Dependent Effect
same,inhibition,Mus musculus [34],Dose-Dependent Effect
same,Activity,Mus musculus [35],Dose-Dependent Effect
same,Activity,Mus musculus [36],Dose-Dependent Effect
same,AUC,[37],928.07 ng·h/mL
same,bioavailability,[38],39.6%
same,microsomal CLint at 1 µM,[39],15.6 µL/min/mg
same,Activity,Mus musculus [40],Active
same,Activity,Mus musculus [41],Active
same,Activity,SH-SY5Y [42],Dose-Dependent Effect
same,Activity,Mus musculus [43],Active
same,AUC(0-t) at 8 h,[44],3640 ng·h/mL
same,concentration at 1 h,[45],55.6 ng/mL
same,Vz,[46],3292.01 mL/kg
same,concentration at 1 h,[47],31.9 ng/mL
same,Activity,Mus musculus [48],Active
same,concentration at 0.5 h,[49],83.1 ng/mL
same,Cmax,[50],4200 ng/mL
